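48-hour exposure; five concentrations; linearly interpolated endpoints. GI50 is the concentration that inhibits growth by half. At the TGI there is no net growth.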
How the values were obtained:
Assay in all cases: inhibition of tumour cell growth, NCI panel, 48 h
UACC-62 melanoma = tested on: UACC-62 melanoma
HCT-15 colon = tested on: HCT-15 colon
MALME-3M melanoma = tested on: MALME-3M melanoma
OVCAR-3 ovarian = tested on: OVCAR-3 ovarian
CAKI-1 renal = tested on: CAKI-1 renal
SF-539 CNS = tested on: SF-539 CNS
MOLT-4 leukemia = tested on: MOLT-4 leukemia
OVCAR-5 ovarian = tested on: OVCAR-5 ovarian
MCF7 breast = tested on: MCF7 breast
COLO 205 colon = tested on: COLO 205 colon
TK-10 renal = tested on: TK-10 renal
NCI/ADR-RES ovarian = tested on: NCI/ADR-RES ovarian
SF-268 CNS = tested on: SF-268 CNS
SF-295 CNS = tested on: SF-295 CNS
SN12C renal = tested on: SN12C renal
LOX IMVI melanoma = tested on: LOX IMVI melanoma
T-47D breast = tested on: T-47D breast
OVCAR-8 ovarian = tested on: OVCAR-8 ovarian
RXF 393 renal = tested on: RXF 393 renal
786-0 renal = tested on: 786-0 renal
BT-549 breast = tested on: BT-549 breast
HT29 colon = tested on: HT29 colon
HOP-62 NSCLC = tested on: HOP-62 NSCLC
PC-3 prostate = tested on: PC-3 prostate
OVCAR-4 ovarian = tested on: OVCAR-4 ovarian
NCI-H522 lung = tested on: NCI-H522 lung
SR leukemia = tested on: SR leukemia
HL-60(TB) leukemia = tested on: HL-60(TB) leukemia
A549 NSCLC = tested on: A549 NSCLC
CCRF-CEM leukemia = tested on: CCRF-CEM leukemia
SK-OV-3 ovarian = tested on: SK-OV-3 ovarian
UACC-257 melanoma = tested on: UACC-257 melanoma
MDA-MB-231 breast = tested on: MDA-MB-231 breast
ACHN renal = tested on: ACHN renal
HOP-92 NSCLC = tested on: HOP-92 NSCLC
IGROV1 ovarian = tested on: IGROV1 ovarian
SK-MEL-28 melanoma = tested on: SK-MEL-28 melanoma
SK-MEL-5 melanoma = tested on: SK-MEL-5 melanoma
SNB-19 CNS = tested on: SNB-19 CNS
NCI-H226 lung = tested on: NCI-H226 lung
UO-31 renal = tested on: UO-31 renal
SK-MEL-2 melanoma = tested on: SK-MEL-2 melanoma
EKVX NSCLC = tested on: EKVX NSCLC
NCI-H23 lung = tested on: NCI-H23 lung
M14 melanoma = tested on: M14 melanoma
MDA-MB-435 = tested on: MDA-MB-435
SW-620 colon = tested on: SW-620 colon
HS 578T breast = tested on: HS 578T breast
U251 CNS = tested on: U251 CNS
K-562 leukemia = tested on: K-562 leukemia
A498 renal = tested on: A498 renal
DU-145 prostate = tested on: DU-145 prostate
RPMI-8226 leukemia = tested on: RPMI-8226 leukemia
HCT-116 colon = tested on: HCT-116 colon
KM12 colon = tested on: KM12 colon
SNB-75 CNS = tested on: SNB-75 CNS
NCI-H460 lung = tested on: NCI-H460 lung
HCC-2998 colon = tested on: HCC-2998 colon

O=C1N(c2ccccc2)C2(c3ccccc3)CC3CCCC13S2 (configuration not stated) was tested, and the TGI (UACC-62 melanoma) was > 100 µM, the TGI (HCT-15 colon) was > 100 µM and the TGI (MALME-3M melanoma) was > 100 µM. For the same compound, the TGI (OVCAR-3 ovarian) was > 100 µM, the TGI (CAKI-1 renal) was > 100 µM and the TGI (SF-539 CNS) was > 100 µM. The TGI (MOLT-4 leukemia) was > 100 µM, the TGI (OVCAR-5 ovarian) was > 100 µM and the TGI (MCF7 breast) was > 100 µM. For the same compound, the TGI (COLO 205 colon) was > 100 µM, the TGI (TK-10 renal) was 1.84 µM and the TGI (NCI/ADR-RES ovarian) was > 100 µM. The TGI (SF-268 CNS) was > 100 µM, the TGI (SF-295 CNS) was > 100 µM and the TGI (SN12C renal) was > 100 µM. For the same compound, the TGI (LOX IMVI melanoma) was > 100 µM, the TGI (T-47D breast) was > 100 µM and the TGI (OVCAR-8 ovarian) was > 100 µM. The TGI (RXF 393 renal) was > 100 µM, the TGI (786-0 renal) was > 100 µM and the TGI (BT-549 breast) was > 100 µM. For the same compound, the TGI (HT29 colon) was > 100 µM, the TGI (HOP-62 NSCLC) was > 100 µM and the TGI (PC-3 prostate) was 90.3 µM. For the same compound, the TGI (OVCAR-4 ovarian) was > 100 µM, the TGI (NCI-H522 lung) was 75.7 µM and the TGI (SR leukemia) was > 100 µM. For the same compound, the TGI (HL-60(TB) leukemia) was 61.3 µM, the TGI (A549 NSCLC) was > 100 µM and the TGI (CCRF-CEM leukemia) was > 100 µM. For the same compound, the TGI (SK-OV-3 ovarian) was > 100 µM, the TGI (UACC-257 melanoma) was 51.1 µM and the TGI (MDA-MB-231 breast) was > 100 µM. For the same compound, the TGI (ACHN renal) was > 100 µM, the TGI (HOP-92 NSCLC) was > 100 µM and the TGI (IGROV1 ovarian) was > 100 µM. For the same compound, the TGI (SK-MEL-28 melanoma) was > 100 µM, the TGI (SK-MEL-5 melanoma) was > 100 µM and the TGI (SNB-19 CNS) was > 100 µM. For the same compound, the TGI (NCI-H226 lung) was > 100 µM, the TGI (UO-31 renal) was > 100 µM and the TGI (SK-MEL-2 melanoma) was 80.9 µM. The TGI (EKVX NSCLC) was > 100 µM, the TGI (NCI-H23 lung) was > 100 µM and the TGI (M14 melanoma) was > 100 µM. For the same compound, the TGI (MDA-MB-435) was > 100 µM, the TGI (SW-620 colon) was > 100 µM and the TGI (HS 578T breast) was > 100 µM. For the same compound, the TGI (U251 CNS) was > 100 µM, the TGI (K-562 leukemia) was > 100 µM and the TGI (A498 renal) was > 100 µM. The TGI (DU-145 prostate) was > 100 µM, the TGI (RPMI-8226 leukemia) was 98.8 µM and the TGI (HCT-116 colon) was > 100 µM. The TGI (KM12 colon) was > 100 µM.

Cn1cc(C2=C(c3cn(CCO)c4ccccc34)C(=O)NC2=O)c2ccccc21 showed a GI50 (UACC-62 melanoma) of 2.58 µM, a TGI (UACC-62 melanoma) of 7.99 µM and a GI50 (HCT-15 colon) of 1.57 µM. For the same compound, the TGI (HCT-15 colon) was > 25 µM, the GI50 (MALME-3M melanoma) was 6.9 µM and the TGI (MALME-3M melanoma) was 17.5 µM. The GI50 (OVCAR-3 ovarian) was 1.78 µM, the TGI (OVCAR-3 ovarian) was 14 µM and the GI50 (CAKI-1 renal) was 3.79 µM. For the same compound, the TGI (CAKI-1 renal) was > 24.1 µM, the GI50 (SF-539 CNS) was 1.4 µM and the TGI (SF-539 CNS) was 8.9 µM. It also gave a GI50 (MOLT-4 leukemia) of 1.36 µM, a TGI (MOLT-4 leukemia) of 16.8 µM and a GI50 (OVCAR-5 ovarian) of 10.9 µM. The TGI (OVCAR-5 ovarian) was > 25 µM, the GI50 (MCF7 breast) was 1.24 µM and the TGI (MCF7 breast) was > 25 µM. The GI50 (COLO 205 colon) was 1.25 µM, the TGI (COLO 205 colon) was 5.89 µM and the GI50 (TK-10 renal) was 4.58 µM. For the same compound, the TGI (TK-10 renal) was 15.5 µM, the GI50 (NCI/ADR-RES ovarian) was 5.6 µM and the TGI (NCI/ADR-RES ovarian) was > 22 µM. For the same compound, the GI50 (SF-268 CNS) was 4.19 µM, the TGI (SF-268 CNS) was 15.4 µM and the GI50 (SF-295 CNS) was 1.18 µM. For the same compound, the TGI (SF-295 CNS) was 7.58 µM, the GI50 (SN12C renal) was 4.75 µM and the TGI (SN12C renal) was > 25 µM. For the same compound, the GI50 (LOX IMVI melanoma) was 2.77 µM, the TGI (LOX IMVI melanoma) was > 25 µM and the GI50 (T-47D breast) was 3.96 µM. The TGI (T-47D breast) was 13.1 µM, the GI50 (OVCAR-8 ovarian) was 5.48 µM and the TGI (OVCAR-8 ovarian) was > 21.9 µM. The GI50 (RXF 393 renal) was 3.22 µM, the TGI (RXF 393 renal) was 9.54 µM and the GI50 (786-0 renal) was 5.01 µM. For the same compound, the TGI (786-0 renal) was > 25 µM, the GI50 (BT-549 breast) was 3.14 µM and the TGI (BT-549 breast) was 11.9 µM. For the same compound, the GI50 (HT29 colon) was 1.5 µM, the TGI (HT29 colon) was > 14.9 µM and the GI50 (HOP-62 NSCLC) was 3.36 µM. The TGI (HOP-62 NSCLC) was > 16.6 µM, the GI50 (PC-3 prostate) was 4.59 µM and the TGI (PC-3 prostate) was > 25 µM. The GI50 (OVCAR-4 ovarian) was 7.83 µM, the TGI (OVCAR-4 ovarian) was > 25 µM and the GI50 (NCI-H522 lung) was 1.64 µM. The TGI (NCI-H522 lung) was 10.8 µM, the GI50 (SR leukemia) was 1.02 µM and the TGI (SR leukemia) was > 23.3 µM. It also gave a GI50 (HL-60(TB) leukemia) of 1.12 µM, a TGI (HL-60(TB) leukemia) of 6.36 µM and a GI50 (A549 NSCLC) of 3.05 µM. The TGI (A549 NSCLC) was > 25 µM, the GI50 (CCRF-CEM leukemia) was 1.37 µM and the TGI (CCRF-CEM leukemia) was > 20 µM. The GI50 (SK-OV-3 ovarian) was 2.61 µM, the TGI (SK-OV-3 ovarian) was > 21.9 µM and the GI50 (UACC-257 melanoma) was 4.75 µM. The TGI (UACC-257 melanoma) was 22.6 µM, the GI50 (MDA-MB-231 breast) was 5.98 µM and the TGI (MDA-MB-231 breast) was > 22.4 µM. For the same compound, the GI50 (ACHN renal) was 4 µM, the TGI (ACHN renal) was > 25 µM and the GI50 (IGROV1 ovarian) was 4.93 µM. It also gave a TGI (IGROV1 ovarian) of 14.9 µM, a GI50 (SK-MEL-28 melanoma) of 3.76 µM and a TGI (SK-MEL-28 melanoma) of 20.2 µM. For the same compound, the GI50 (SK-MEL-5 melanoma) was 2.55 µM, the TGI (SK-MEL-5 melanoma) was 9.67 µM and the GI50 (SNB-19 CNS) was 7.09 µM. For the same compound, the TGI (SNB-19 CNS) was > 25 µM, the GI50 (NCI-H226 lung) was 4.76 µM and the TGI (NCI-H226 lung) was > 19.6 µM. It also gave a GI50 (UO-31 renal) of 3.2 µM, a TGI (UO-31 renal) of 14.6 µM and a GI50 (SK-MEL-2 melanoma) of 1.65 µM. It also gave a TGI (SK-MEL-2 melanoma) of 8.37 µM, a GI50 (SNB-75 CNS) of 0.634 µM and a TGI (SNB-75 CNS) of 6.5 µM. It also gave a GI50 (NCI-H23 lung) of 4.75 µM, a TGI (NCI-H23 lung) of 15.2 µM and a GI50 (M14 melanoma) of 2.12 µM. The TGI (M14 melanoma) was > 25 µM, the GI50 (MDA-MB-435) was 0.746 µM and the TGI (MDA-MB-435) was > 25 µM. For the same compound, the GI50 (SW-620 colon) was 1.21 µM, the TGI (SW-620 colon) was > 25 µM and the GI50 (HS 578T breast) was 1.49 µM. For the same compound, the TGI (HS 578T breast) was 14.5 µM, the GI50 (NCI-H460 lung) was 2.06 µM and the TGI (NCI-H460 lung) was > 25 µM. The GI50 (U251 CNS) was 1.98 µM, the TGI (U251 CNS) was 13.7 µM and the GI50 (K-562 leukemia) was 1.12 µM. For the same compound, the TGI (K-562 leukemia) was > 25 µM, the GI50 (A498 renal) was 1.45 µM and the TGI (A498 renal) was 7.78 µM. For the same compound, the GI50 (HCC-2998 colon) was 5.56 µM, the TGI (HCC-2998 colon) was > 23.6 µM and the GI50 (DU-145 prostate) was 6.94 µM. For the same compound, the TGI (DU-145 prostate) was > 23.8 µM, the GI50 (RPMI-8226 leukemia) was 5.33 µM and the TGI (RPMI-8226 leukemia) was 16 µM. For the same compound, the GI50 (HCT-116 colon) was 1.49 µM, the TGI (HCT-116 colon) was > 25 µM and the GI50 (KM12 colon) was 2 µM. It also gave a TGI (KM12 colon) of 9.4 µM.
